Assay results published in ChEMBL document CHEMBL3301464, “MMV Malaria Box anti-babesial screening”.

What was measured:
[1] = (§1) MMV: Anti-babesial activity assay. Parasite pRBCs at 1% parasitemia were cultivated in 100 ul with 96-well plates at 2.5% and 5% hematocrits. The parasites were cultivated in triplicate for 4 days without replacement of the medium for each concentration of the compound.; assay type: functional, Babesia bigemina
[2] = as §1; assay type: functional, Babesia bovis
[3] = as §1; assay type: functional, Babesia caballi
[4] = as §1; assay type: functional, Babesia equi

Structure (SMILES)	IC50 [1] [µM]	IC50 [2] [µM]	IC50 [3] [µM]	IC50 [4] [µM]
Cc1cc(Nc2ccc(OCc3ccccc3)cc2)nc2cc(O)ccc12	3.45	0.17	4.91	6.31
COc1cccc(Nc2nc(NCCO)c3ccccc3n2)c1	1	6.99	1.3	4.09
COc1ccc(C2C(C(=O)Nc3cccc(OC)c3)c3ccccc3C(=O)N2C2CCCCC2)cc1 (stereo not drawn)	0.22	10	1	12.5
CN(C)CCCNCc1ccc(-c2ccc(F)c(Cl)c2)o1	4.61	2.45	0.69	4.09
CC1CC(C)CN(C(=O)c2ccc(Cl)cc2Cl)C1 (stereo not drawn)	14.7	6.8	3.9	19.4
COc1ccc(-c2cc3c(SCC(=O)Nc4cc(C(F)(F)F)ccc4Cl)nccn3n2)cc1	17.1	> 25	9.61	25
Nc1ccc(-c2nc3cc(Oc4ccc(Oc5ccc6[nH]c(-c7ccc(N)cc7)nc6c5)cc4)ccc3[nH]2)cc1	18.9	10	4.52	3.86
COc1ccc(CCN2C(=O)c3[nH]nc(-c4cc(Cl)c(C)cc4O)c3C2c2ccccc2F)cc1 (stereo not drawn)	0.63	5.9	9.01	7.65
COc1cccc(NC(=O)Cn2c(C)c(C#N)c3ccccc32)c1	14.8	9.04	10.1	7.3
COc1cccc(-c2nn(C)c3sc(C(=O)NCCN4CCN(c5ccccc5F)CC4)cc23)c1	10	2.06	6.8	5.93
CCOC(=O)c1cnc2ccc(OC)cc2c1NCc1ccccc1	1	0.72	5.9	14.1
O=C(Nc1ccc(-c2nc3ccccc3[nH]2)cc1)c1ccc(Cl)c(Cl)c1	4.13	18.5	3.86	6.24
COc1cc2c(cc1OC)C1=NNC(=O)C1=NC(C)(C)C2	12.9	6.8	4.48	3.61
CCCCCCc1cc2cc(-c3csc(C=Cc4ccccc4)n3)c(=O)oc2cc1O	25	5.92	10	6.86
CCN(CC)CCNc1ncnc2c1[nH]c1ccc(Cl)cc12	16.2	17.6	2.64	3.42
COc1ccc2nc(C)cc(Nc3ccc(Cl)cc3)c2c1	8.15	2.4	> 25	4.29
Cc1sc2ncnc(Sc3nc4ccccc4[nH]3)c2c1C	0.41	0.05	0.29	5.5
COc1ccc2nc(C)cc(Nc3ccccc3O)c2c1	15.3	25	1	8.83
CCN(CC)CCNc1ncnc2c1[nH]c1ccc(Br)cc12	3.03	1	4.19	4.6
CCOc1cc2c(cc1OCC)C(c1cc(Cl)c(O)c(OCC)c1)NCC2 (stereo not drawn)	> 25	24	13.4	12.3
CC(NCc1ccccc1)c1cc(Cl)ccc1O (stereo not drawn)	12	3.81	16.6	8.25

Structure (SMILES)	IC50 [1] [µM]	IC50 [2] [µM]	IC50 [3] [µM]	IC50 [4] [µM]
O=C(c1ccccc1F)N(Cc1ccc(Cl)cc1)c1ccccn1	4.19	16.5	6.06	18.2
CCC(=O)Nc1nnc(Cc2ccc(OC)c(OC)c2)s1	10	1.29	4.65	12.4
CCCCN(CCCC)S(=O)(=O)c1ccc(NC(=O)c2ccco2)cc1	25	10	3.81	14.2
COc1ccccc1N1C(=N)SC(=Cc2ccc(OCc3ccccc3F)cc2)C1=O	10	18.6	17.1	16.1
CC(C)(C)C(=O)Nc1ccc(C(=O)Nc2cccc(-c3nc4ccccc4[nH]3)c2)cc1	0.08	0.32	2.19	5.19
CCn1nc(-c2ccc(C(=O)OC)cc2)nc2c(=O)n(C)c(=O)nc1-2	7.89	12.8	0.09	5.06
O=C(Nc1ccccc1O)c1ccc(-c2ccc(Cl)cc2Cl)o1	19	4.65	6.51	12.5
CC(C)(C)c1ccc(C2CC3=Nc4ccccc4N(C(=O)c4ccccc4Cl)C(c4ccc(F)cc4)C3=C(O)C2)cc1 (stereo not drawn)	12	21.4	3.73	15.2
O=C(NCc1ccco1)C1CCN(S(=O)(=O)c2ccc(Cl)cc2)CC1	13	> 25	25	7.59
CCCCCCOC(=O)C1=C(C)NC(=O)NC1c1ccccc1F (stereo not drawn)	14.8	> 25	4.9	15.2
Cc1ccc(Nc2nc(NCCO)c3ccccc3n2)cc1C	6.36	3.63	5	2.2
COc1ccc(Nc2nc(NCc3ccccc3)c3ccccc3n2)cc1	2.16	0.06	3.7	4.77
CC(=O)c1sc(NC(=O)Nc2ccc(C)cc2C)nc1C	10	11.1	5.3	7.26
CCN1CCN(c2c(C(=O)c3ccccc3)cnc3cc(OC)c(OC)cc23)CC1	1.21	0.86	15.9	13
COCCn1c(C)nc2ccccc2c1=O	14.7	14.3	13.9	12.9
CCCOCc1cc(CN2CCN(c3cccc(Cl)c3)CC2)c(O)c2ncccc12	3.86	1.74	5.9	2.95
Oc1ccccc1CN1CCC2(CCCN(Cc3ccccc3F)C2)C1 (stereo not drawn)	0.73	14.3	5.06	0.1
COc1ccc(C(=O)Nc2nonc2-c2ccc(OC)c(OC)c2)cc1Cl	19.3	> 25	15.9	20.4
COc1cc(C(=O)Nc2nc3c(cc4c5c(cccc53)CC4)s2)cc(OC)c1OC	8.04	3.08	5	4.41
CCC(O)c1ccc(Br)cc1NC(=O)c1cccc(Cl)c1 (stereo not drawn)	7.38	> 25	11.4	> 25
O=C(NC1CCN(Cc2ccccc2)CC1)c1cc(C(=O)NC2CCN(Cc3ccccc3)CC2)cc(C(=O)NC2CCN(Cc3ccccc3)CC2)c1	0.077	0.06	5.3	15.2

Structure (SMILES)	IC50 [1] [µM]	IC50 [2] [µM]	IC50 [3] [µM]	IC50 [4] [µM]
CCCCNc1nc(NC(C)(C)C)nc(NC(C)(C)C)n1	1	0.65	0.672	0.25
COc1ccc(C=C2SC(Nc3ccc(F)cc3)=NC2=O)c(OC)c1	0.082	0.1	0.836	4.61
CCOc1ccc2nc(C)cc(Nc3ccc(Br)cc3)c2c1	0.6	1.07	15.2	7.13
CCC1(C)CC(CCNCc2ccccc2O)(c2ccc(C)cc2)CCO1 (stereo not drawn)	16.8	14.1	7.3	0.61
O=C(Cc1ccccc1)NC(c1ccc(Cl)cc1)c1c(O)ccc2ccccc12 (stereo not drawn)	13.1	1	10	12.7
O=C(Nc1nc(-c2ccccn2)cs1)c1ccccc1Br	1	4.6	1	5.5
CN1C=C(c2ccc3ccccc3n2)C(c2c[nH]c3ccccc23)c2ccccc21 (stereo not drawn)	4.52	5.9	0.304	5.12
O=C(CCl)NCCOc1ccc(Cl)cc1Cl	13.1	16.5	12	16.5
CC(=O)c1ccc(NC(=O)CSc2nc(-c3ccccc3Cl)ns2)cc1	10	0.86	3.34	0.65
CCCCOc1ccc(C(=O)Nc2cc(C)on2)cc1	25	21.2	0.083	6.99
COc1cc(C(=O)Nc2ccc(-c3nc4ccccc4[nH]3)cc2)cc(OC)c1OC	1	13.3	11	15.9
CCCCCCc1cc2cc(-c3nc4ccccc4[nH]3)c(=Nc3ccccc3C)oc2cc1O	17.2	19.7	25	> 25
COc1ccc(CCNC(=O)c2cc(S(=O)(=O)N3CC(C)CC(C)C3)ccc2Sc2ccc(F)cc2)cc1OC (stereo not drawn)	0.086	1	0.13	12.7
OC(CNC1CCCCC1)Cn1c2ccccc2c2ccccc21 (stereo not drawn)	17.3	17.3	13.8	17.3
CCOc1ccc(CCNC(=O)c2cccs2)cc1OCC	> 25	25	15.3	13.9
CCOc1ccc2c(c1)CN(Cc1ccc(Cl)cc1)CO2	13.3	0.26	10.7	7.54
N=c1n(CCN2CCCCC2)c2ccccc2n1CC(O)c1cccc(Br)c1 (stereo not drawn)	1	3.81	4.93	1.58
COc1ccc(CNC2CCN(c3ccc(NC(=O)c4cccc(Cl)c4)cc3)CC2)cc1OC	0.85	0.1	12.4	0.309
COCCN(C(=O)Cc1cccs1)C(C(=O)NCc1ccc(OC)cc1)c1ccc(C(C)C)cc1 (stereo not drawn)	13.2	25	17.2	5.79
COc1ccc(NC(=O)C2c3ccccc3C(=O)N(CC(C)C)C2c2cccs2)cc1 (stereo not drawn)	17.3	12.6	9.09	8.02
